# Target: T1, Histone acetyltransferase KAT8 (Homo sapiens, UniProt Q9H7Z6)
# T1 sequence (Q9H7Z6 whole entry): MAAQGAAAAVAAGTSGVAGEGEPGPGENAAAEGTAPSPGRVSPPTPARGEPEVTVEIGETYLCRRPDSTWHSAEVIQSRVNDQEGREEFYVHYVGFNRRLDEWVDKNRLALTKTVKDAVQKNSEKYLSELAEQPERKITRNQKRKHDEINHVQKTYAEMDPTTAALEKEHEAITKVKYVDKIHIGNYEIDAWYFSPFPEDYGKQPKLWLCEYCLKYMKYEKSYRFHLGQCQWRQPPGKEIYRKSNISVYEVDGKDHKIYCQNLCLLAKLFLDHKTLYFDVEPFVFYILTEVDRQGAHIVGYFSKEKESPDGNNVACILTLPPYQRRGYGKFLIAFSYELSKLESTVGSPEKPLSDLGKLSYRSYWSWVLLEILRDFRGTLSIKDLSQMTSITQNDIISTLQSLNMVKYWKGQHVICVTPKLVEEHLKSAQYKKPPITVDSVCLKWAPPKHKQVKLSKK
# Test: Inhibition of recombinant N-terminal His6-tagged KAT8 (unknown origin) expressed in Escherichia Coli BL21 DE3 cells assessed as reduction of Co A level using histone H4 substrate after 15 mins by CPM fluorescence assay
row,Ki,SMILES
1,79 µM,CCCCCCCCCCCCCCCc1ccc(O)c(C(=O)O)c1
2,57 µM,CCCCCCCCCCc1ccc(O)c(C(=O)O)c1
3,157 µM,O=C(O)c1c(O)cccc1CCCCCCCCCCCO
4,37 µM,CCCCCCCCCCc1cccc(O)c1C(=O)O
